{
  "source": "patent US20240025849A1",
  "about": "(MAX DELBRÜCK-CENTRUM FÜR MOLEKULARE MEDIZIN IN DER …, priority 2020, published 2024)",
  "key": {"[1]": {"test_system": "primary cultured neonatal microglia", "experiment": "AlamarBlue assay (metabolic activity / cell viability) in microglia", "type": "cell-based, mouse", "experimental": "Primary cultured neonatal microglia. For preparation of cultured neonatal microglia, P0-P3 mice were used. 10 brains were extracted, meninges and cerebellum were removed and put on ice with Hank's balanced salt solution (HBSS). The dissected brains were washed 3 times before adding 400 μL trypsin (0.1 mg/L) and DNAse (5 μg/L) in phosphate buffered saline (PBS). After 2 min of incubation with this solution, the reaction was blocked by adding plain medium. After removal of the medium, 1 mg DNAse was added and the cells were mechanically dissociated, with a Pasteur pipette followed by a glass pipette. The cells were centrifuged for 10 min at 129 g at 4° C. The supernatant was discarded. The pellet was resuspended in plain medium and plated (2.5 brains/flask) in Poly-L-Lysine coated flasks. The cells were washed after 2 days with PBS and incubated for another 7 days in plain medium. Afterwards the medium was replaced by plain medium with 33% L929 conditioned medium. After 2 days, cells were harvested by shaking them for 30 min at 150 rpm. The supernatant was centrifuged for 10 min at 129 g at 4° C. The cells were plated into a 96 well plate (100 000 cells/well, 200 μL medium per well). This procedure could be repeated 2 times with a 2 day interval.\nConcentration-dependent validation and viability determination. Concentrated stock solutions of compounds identified from primary screening were rearranged onto anew 384-well plate, and 10 sequential 2-fold serial dilutions were created across multiple plates in DMSO. Starting from these diluted compound mother plates, the protocol was repeated exactly as for primary screening to span the concentration range between 5 μM and 20 nM. In order to obtain the 10 μM and 20 μM concentration points, 1000 n1 and 2000 n1 were transferred from the 500 μM pre-dilution plate, respectively. Each concentration was measured in duplicate. Normalized percent activities were plotted against the compound concentration to obtain the IC50 values. To obtain also information about the impact of compounds on cell viability, a second batch of plates was prepared as described above, but 5 μl of Alamar Blue solution was added after 48 hours instead of Griess reagent and incubation was continued for additional 4 hours at 37° C. Finally, the resorufin fluorescence was detected at an excitation wavelength of 530 nm and emission of 570 nm. Since no control samples were present on the assay plate for data normalization of cell viability, the raw data values were added on the second y-scale to the IC50 plots.\nAlamarBlue assay. […] The conversion of resazurin to resorufin was measured by absorbance (absorbance wavelength of 570 nm and a reference wavelength of 600 nm) after 3 hours."}, "[2]": {"test_system": "bone marrow derived macrophages", "experiment": "AlamarBlue assay (metabolic activity) in macrophages", "type": "cell-based, mouse", "details": "for cell (metabolic) activity, % of positive control: 1 μg/mL LPS 48 hours", "experimental": "Primary cultured macrophages. Bone marrow macrophages were isolated from C57BL/6 adult mice ([…]-56) as previously described (Marim et al., 2010). In summary, mice were killed by cervical dislocation and the femurs were removed by cutting through the tibia near the pelvic bone and below the knee. Any muscle connected to the bone was carefully removed. Ice cold sterile PBS was slowly flushed through the bone and the contents were collected in a sterile 15 mL polypropylene tube on ice. After centrifugation for 10 min at 200 g at 4° C., red blood cells were lysed by adding 3-10 mL ammonium chloride solution. After a 3-5 min recovery period, the suspension was centrifuged for 10 min at 200 g at 4° C. and the supernatant was removed. Cells were plated in a 10 cm dish with plain medium containing 10 ng/mL M-CSF and cultured for 7 days to allow differentiation. 50 000 cells were plated with 200 μL medium per well in a 96 well plate. AlamarBlue assay. Cells were seeded according to the protocols described above, after compounds and stimuli were added, the cells were washed once with HBSS (37° C.) and 100 μl of a 1:10 AlamarBlue (Thermo Fisher Scientific) dilution in plain medium was added. The conversion of resazurin to resorufin was measured by absorbance (absorbance wavelength of 570 nm and a reference wavelength of 600 nm) after 3 hours."}, "[3]": {"test_system": "oligodendrocyte cell line OLN-93", "experiment": "Propidium iodide based proliferation and cell death assay in OLN-93 cells", "details": "2.5 μM C1, 48 hours, unstimulated", "experimental": "Cell culture of immortalized cell lines: microglia cell line BV2, and oligodendrocyte cell line OLN-93. The immortalized murine microglia cell line BV2 (Blasi et al., 1990) and the oligodendrocyte cell line OLN-93 (Richter-Landsberg and Heinrich, 1996) were incubated in T75 flasks with plain medium. The cells were split every 2 to 3 days at the dilution 1:10 before they reached confluence. To do so, the cells were washed twice with PBS, followed by up to 5 min of trypsination. The trypsination was stopped using plain medium. The cells were centrifuged at 300 g for 10 min at 4° C., the supernatant was discarded, and the cells were resuspended in new medium and seeded into a new flask.\nPropidium iodide based proliferation and cell death assay. To determine the relative proliferation and cell death, the cells were seeded into a […], let adhere for 24 hours and afterwards treated for additional 48 hours. The supernatant was removed, and the cells were washed carefully with 37° C. […] The intensity of the propidium iodide signal of the dead cells was measured using a microplate reader. Afterwards, all cells were killed with a 10 min incubation of 10% DMSO and the propidium iodide signal of all cells was measured. […] The percentage of dead cells was calculated by dividing the dead-cell-signal by the all-cell-signal. Proliferation was calculated as a relative value to the plain medium control."}},
  "note": "Entries after “also recorded” stand apart in the source; their conditions may differ.",
  "data": [
    {"molecule": "COc1ccc(NC(=O)C(NC(=O)C2CCCN2C(=O)OCc2ccccc2)c2ccc(OC)cc2)cc1", "note": "(stereo not shown) [C1]", "values": [
      {"measurement": "cell viability", "setting": "[1]; 2 nM to 20 μM, 1 μg/ml LPS 48 h", "value": "no effects on cell viability"},
      {"measurement": "metabolic activity", "setting": "[1]; 20 μM C1, 1 μg/mL LPS 48 h", "value": "84%±3.99"},
      {"measurement": "metabolic activity in unstimulated microglia", "setting": "[1]; C1 alone 0.025, 0.25, 2.5 μM, 48 hours", "value": "did not show any significant difference; also recorded: nor did it interfere with the metabolic activity"},
      {"measurement": "metabolic activity (AlamarBlue)", "setting": "[1]; HTS setup, LPS stimulated", "value": "remained stable"},
      {"measurement": "cell (metabolic) activity, % of positive control", "setting": "[2]; 0.025 μM C1", "value": "78.47±31.61", "unit": "%"},
      {"measurement": "metabolic activity of PolyIC stimulated macrophages", "setting": "[2]; 0.025 μM C1, 100 μg/mL PolyIC 24 hours", "value": "reduction of metabolic activity; also recorded: deceased significantly"},
      {"measurement": "cell (metabolic) activity, % of positive control", "setting": "[2]; 0.25 μM C1", "value": "69.31±36.50", "unit": "%"},
      {"measurement": "metabolic activity of IFNγ stimulated macrophages", "setting": "[2]; 0.25 μM and 2.5 μM C1, 100 ng/mL IFNγ 48 hours", "value": "significant decrease in metabolic activity; also recorded: decreased the metabolic of IFNγ (100 ng/ml) significantly compared to plain medium"},
      {"measurement": "cell (metabolic) activity, % of positive control", "setting": "[2]; 2.5 μM C1", "value": "66.48±31.17", "unit": "%"},
      {"measurement": "metabolic activity of macrophages stimulated with LPS", "setting": "[2]; all tested concentrations of C1", "value": "decreased the metabolic activity"},
      {"measurement": "metabolic activity of PolyIC stimulated macrophages", "setting": "[2]; higher concentrations of C1 (0.25, 2.5 μM)", "value": "did not show a significant difference"},
      {"measurement": "OLN-93 cell death rate", "setting": "[3]", "value": "no significant effect"},
      {"measurement": "proliferation of OLN-93 cells", "setting": "[3]", "value": "did not show an effect; also recorded: Neither C1 nor DMSO changed the proliferation"}
    ]}
  ]
}
